In PubChem BioAssay (NCI):
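The compound was tested at five concentrations on cells cultured in 96-well plates, with a 48-hour exposure period. At the TGI there is no net growth.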

Legend:
Assay in all cases: NCI-60 cell line screen, 48 h
HCT-15 colon = system: HCT-15 colon
NCI-H460 lung = system: NCI-H460 lung
OVCAR-4 ovarian = system: OVCAR-4 ovarian
MDA-N = system: MDA-N
SNB-19 CNS = system: SNB-19 CNS
U251 CNS = system: U251 CNS
SN12C renal = system: SN12C renal
MDA-MB-435 = system: MDA-MB-435
UO-31 renal = system: UO-31 renal
SF-268 CNS = system: SF-268 CNS
KM12 colon = system: KM12 colon
NCI-H226 lung = system: NCI-H226 lung
SK-MEL-2 melanoma = system: SK-MEL-2 melanoma
LOX IMVI melanoma = system: LOX IMVI melanoma
OVCAR-5 ovarian = system: OVCAR-5 ovarian
T-47D breast = system: T-47D breast
NCI-H522 lung = system: NCI-H522 lung
MALME-3M melanoma = system: MALME-3M melanoma
SNB-75 CNS = system: SNB-75 CNS
SK-MEL-28 melanoma = system: SK-MEL-28 melanoma
HS 578T breast = system: HS 578T breast
HOP-62 NSCLC = system: HOP-62 NSCLC
A549 NSCLC = system: A549 NSCLC
ACHN renal = system: ACHN renal
DU-145 prostate = system: DU-145 prostate
UACC-62 melanoma = system: UACC-62 melanoma
CCRF-CEM leukemia = system: CCRF-CEM leukemia
SF-295 CNS = system: SF-295 CNS
UACC-257 melanoma = system: UACC-257 melanoma
786-0 renal = system: 786-0 renal
CAKI-1 renal = system: CAKI-1 renal
SK-OV-3 ovarian = system: SK-OV-3 ovarian
EKVX NSCLC = system: EKVX NSCLC
HCT-116 colon = system: HCT-116 colon
HCC-2998 colon = system: HCC-2998 colon
RPMI-8226 leukemia = system: RPMI-8226 leukemia
COLO 205 colon = system: COLO 205 colon
HT29 colon = system: HT29 colon
OVCAR-8 ovarian = system: OVCAR-8 ovarian
BT-549 breast = system: BT-549 breast
OVCAR-3 ovarian = system: OVCAR-3 ovarian
K-562 leukemia = system: K-562 leukemia
HOP-92 NSCLC = system: HOP-92 NSCLC
MOLT-4 leukemia = system: MOLT-4 leukemia
SK-MEL-5 melanoma = system: SK-MEL-5 melanoma
IGROV1 ovarian = system: IGROV1 ovarian
M14 melanoma = system: M14 melanoma
SW-620 colon = system: SW-620 colon
PC-3 prostate = system: PC-3 prostate
MDA-MB-231 breast = system: MDA-MB-231 breast
SR leukemia = system: SR leukemia
NCI/ADR-RES ovarian = system: NCI/ADR-RES ovarian
NCI-H23 lung = system: NCI-H23 lung
TK-10 renal = system: TK-10 renal
A498 renal = system: A498 renal
SF-539 CNS = system: SF-539 CNS
MCF7 breast = system: MCF7 breast
RXF 393 renal = system: RXF 393 renal
HL-60(TB) leukemia = system: HL-60(TB) leukemia

Compound `COc1cc2c(cc1C)NC(=O)/C2=C/c1c(Cl)[nH]c2cc(C)c(OC)cc12` has a TGI (HCT-15 colon) of 17.5 µM, a TGI (NCI-H460 lung) of 5.71 µM and a TGI (OVCAR-4 ovarian) of 18 µM. The TGI (MDA-N) was 8.93 µM, the TGI (SNB-19 CNS) was 20.4 µM and the TGI (U251 CNS) was 15.3 µM. The TGI (SN12C renal) was 8.18 µM, the TGI (MDA-MB-435) was 8.49 µM and the TGI (UO-31 renal) was 23.4 µM. It also gave a TGI (SF-268 CNS) of 18.7 µM, a TGI (KM12 colon) of 15.5 µM and a TGI (NCI-H226 lung) of 50.6 µM. For the same compound, the TGI (SK-MEL-2 melanoma) was 22.1 µM, the TGI (LOX IMVI melanoma) was 15.7 µM and the TGI (OVCAR-5 ovarian) was 25.8 µM. It also gave a TGI (T-47D breast) of 25.8 µM, a TGI (NCI-H522 lung) of 19.8 µM and a TGI (MALME-3M melanoma) of 25.4 µM. For the same compound, the TGI (SNB-75 CNS) was 11.8 µM, the TGI (SK-MEL-28 melanoma) was 24 µM and the TGI (HS 578T breast) was 46 µM. It also gave a TGI (HOP-62 NSCLC) of 23.2 µM, a TGI (A549 NSCLC) of 28.7 µM and a TGI (ACHN renal) of 18.4 µM. For the same compound, the TGI (DU-145 prostate) was 14.8 µM, the TGI (UACC-62 melanoma) was 19.5 µM and the TGI (CCRF-CEM leukemia) was 5.16 µM. It also gave a TGI (SF-295 CNS) of 6.18 µM, a TGI (UACC-257 melanoma) of 23.7 µM and a TGI (786-0 renal) of 18.2 µM. It also gave a TGI (CAKI-1 renal) of 21.2 µM, a TGI (SK-OV-3 ovarian) of 5.56 µM and a TGI (EKVX NSCLC) of 22.8 µM. For the same compound, the TGI (HCT-116 colon) was 18.1 µM, the TGI (HCC-2998 colon) was 11 µM and the TGI (RPMI-8226 leukemia) was over 48.9 µM. It also gave a TGI (COLO 205 colon) of 12.7 µM, a TGI (HT29 colon) of 17.6 µM and a TGI (OVCAR-8 ovarian) of 24.1 µM. For the same compound, the TGI (BT-549 breast) was 9.92 µM, the TGI (OVCAR-3 ovarian) was 8.6 µM and the TGI (K-562 leukemia) was over 41.6 µM. The TGI (HOP-92 NSCLC) was 23.7 µM, the TGI (MOLT-4 leukemia) was 17.8 µM and the TGI (SK-MEL-5 melanoma) was 10.6 µM. It also gave a TGI (IGROV1 ovarian) of 16.1 µM, a TGI (M14 melanoma) of 13.7 µM and a TGI (SW-620 colon) of 19.7 µM. For the same compound, the TGI (PC-3 prostate) was 21.7 µM, the TGI (MDA-MB-231 breast) was 33.2 µM and the TGI (SR leukemia) was 12 µM. The TGI (NCI/ADR-RES ovarian) was 13.5 µM, the TGI (NCI-H23 lung) was 11.6 µM and the TGI (TK-10 renal) was 18 µM. The TGI (A498 renal) was 23.1 µM, the TGI (SF-539 CNS) was 1330 nM and the TGI (MCF7 breast) was 20.4 µM. For the same compound, the TGI (RXF 393 renal) was 22.1 µM and the TGI (HL-60(TB) leukemia) was 3.39 µM.
In the case of `CCCCCCCCCc1cc(O)c(O)cc1CCCCCCCCC`, the TGI (HCT-15 colon) is reported as over 10 µM, the TGI (NCI-H460 lung) is reported as over 10 µM and the TGI (OVCAR-4 ovarian) is reported as over 10 µM. The TGI (MDA-N) was over 10 µM, the TGI (SNB-19 CNS) was over 10 µM and the TGI (U251 CNS) was over 10 µM. For the same compound, the TGI (SN12C renal) was over 10 µM, the TGI (MDA-MB-435) was over 10 µM and the TGI (UO-31 renal) was over 10 µM. It also gave a TGI (SF-268 CNS) of over 10 µM, a TGI (KM12 colon) of over 10 µM and a TGI (NCI-H226 lung) of over 10 µM. The TGI (SK-MEL-2 melanoma) was over 10 µM, the TGI (LOX IMVI melanoma) was over 10 µM and the TGI (OVCAR-5 ovarian) was over 10 µM. For the same compound, the TGI (T-47D breast) was over 10 µM, the TGI (NCI-H522 lung) was over 10 µM and the TGI (MALME-3M melanoma) was over 10 µM. The TGI (SNB-75 CNS) was over 10 µM, the TGI (SK-MEL-28 melanoma) was over 10 µM and the TGI (HS 578T breast) was over 10 µM. For the same compound, the TGI (HOP-62 NSCLC) was over 10 µM, the TGI (A549 NSCLC) was over 10 µM and the TGI (ACHN renal) was over 10 µM. It also gave a TGI (DU-145 prostate) of over 10 µM, a TGI (UACC-62 melanoma) of over 10 µM and a TGI (CCRF-CEM leukemia) of over 10 µM. For the same compound, the TGI (SF-295 CNS) was over 10 µM, the TGI (UACC-257 melanoma) was over 10 µM and the TGI (786-0 renal) was over 10 µM. For the same compound, the TGI (CAKI-1 renal) was over 10 µM, the TGI (SK-OV-3 ovarian) was over 10 µM and the TGI (EKVX NSCLC) was over 10 µM. The TGI (HCT-116 colon) was over 10 µM, the TGI (HCC-2998 colon) was over 10 µM and the TGI (RPMI-8226 leukemia) was over 10 µM. The TGI (COLO 205 colon) was over 10 µM, the TGI (HT29 colon) was over 10 µM and the TGI (OVCAR-8 ovarian) was over 10 µM. It also gave a TGI (BT-549 breast) of over 10 µM, a TGI (OVCAR-3 ovarian) of over 10 µM and a TGI (K-562 leukemia) of over 10 µM. It also gave a TGI (HOP-92 NSCLC) of over 10 µM, a TGI (MOLT-4 leukemia) of over 10 µM and a TGI (SK-MEL-5 melanoma) of over 10 µM. For the same compound, the TGI (IGROV1 ovarian) was over 10 µM, the TGI (M14 melanoma) was over 10 µM and the TGI (SW-620 colon) was over 10 µM. The TGI (PC-3 prostate) was over 10 µM, the TGI (MDA-MB-231 breast) was over 10 µM and the TGI (SR leukemia) was over 10 µM. The TGI (NCI/ADR-RES ovarian) was over 10 µM, the TGI (NCI-H23 lung) was over 10 µM and the TGI (TK-10 renal) was over 10 µM. For the same compound, the TGI (A498 renal) was over 10 µM, the TGI (SF-539 CNS) was over 10000 nM and the TGI (MCF7 breast) was over 10 µM. It also gave a TGI (RXF 393 renal) of over 10 µM and a TGI (HL-60(TB) leukemia) of over 10 µM.
